Publication PMC4685510, “A Cell Biologist’s Field Guide to Aurora Kinase Inhibitors” (Frontiers in Oncology, 2015)

Tests used:
Test in all cases: biochemical
Format in all cases: biochemical
[1] = molecular target: 363 human kinases (including Aurora A/B/C) (Homo sapiens, UniProt Q16620); details: TRKB; for remaining activity at 0.1 µM: 100 nM
From the text: (§1) However, the Aurora A/B selectivity ratios derived from our in vitro and in vivo data can be compared to prioritize inhibitors.

[2] = molecular target: 363 human kinases (including Aurora A/B/C) (Homo sapiens, UniProt P53355); details: DAPK1, [ATP] 10 µM; for remaining activity at 0.1 µM: 100 nM; for remaining activity at 0.1 µM / remaining activity at 0.5 µM: read-out: % Enzyme Activity (relative to DMSO controls)
Sequence of 363 human kinases (including Aurora A/B/C) (Homo sapiens, UniProt P53355) (P53355 whole entry): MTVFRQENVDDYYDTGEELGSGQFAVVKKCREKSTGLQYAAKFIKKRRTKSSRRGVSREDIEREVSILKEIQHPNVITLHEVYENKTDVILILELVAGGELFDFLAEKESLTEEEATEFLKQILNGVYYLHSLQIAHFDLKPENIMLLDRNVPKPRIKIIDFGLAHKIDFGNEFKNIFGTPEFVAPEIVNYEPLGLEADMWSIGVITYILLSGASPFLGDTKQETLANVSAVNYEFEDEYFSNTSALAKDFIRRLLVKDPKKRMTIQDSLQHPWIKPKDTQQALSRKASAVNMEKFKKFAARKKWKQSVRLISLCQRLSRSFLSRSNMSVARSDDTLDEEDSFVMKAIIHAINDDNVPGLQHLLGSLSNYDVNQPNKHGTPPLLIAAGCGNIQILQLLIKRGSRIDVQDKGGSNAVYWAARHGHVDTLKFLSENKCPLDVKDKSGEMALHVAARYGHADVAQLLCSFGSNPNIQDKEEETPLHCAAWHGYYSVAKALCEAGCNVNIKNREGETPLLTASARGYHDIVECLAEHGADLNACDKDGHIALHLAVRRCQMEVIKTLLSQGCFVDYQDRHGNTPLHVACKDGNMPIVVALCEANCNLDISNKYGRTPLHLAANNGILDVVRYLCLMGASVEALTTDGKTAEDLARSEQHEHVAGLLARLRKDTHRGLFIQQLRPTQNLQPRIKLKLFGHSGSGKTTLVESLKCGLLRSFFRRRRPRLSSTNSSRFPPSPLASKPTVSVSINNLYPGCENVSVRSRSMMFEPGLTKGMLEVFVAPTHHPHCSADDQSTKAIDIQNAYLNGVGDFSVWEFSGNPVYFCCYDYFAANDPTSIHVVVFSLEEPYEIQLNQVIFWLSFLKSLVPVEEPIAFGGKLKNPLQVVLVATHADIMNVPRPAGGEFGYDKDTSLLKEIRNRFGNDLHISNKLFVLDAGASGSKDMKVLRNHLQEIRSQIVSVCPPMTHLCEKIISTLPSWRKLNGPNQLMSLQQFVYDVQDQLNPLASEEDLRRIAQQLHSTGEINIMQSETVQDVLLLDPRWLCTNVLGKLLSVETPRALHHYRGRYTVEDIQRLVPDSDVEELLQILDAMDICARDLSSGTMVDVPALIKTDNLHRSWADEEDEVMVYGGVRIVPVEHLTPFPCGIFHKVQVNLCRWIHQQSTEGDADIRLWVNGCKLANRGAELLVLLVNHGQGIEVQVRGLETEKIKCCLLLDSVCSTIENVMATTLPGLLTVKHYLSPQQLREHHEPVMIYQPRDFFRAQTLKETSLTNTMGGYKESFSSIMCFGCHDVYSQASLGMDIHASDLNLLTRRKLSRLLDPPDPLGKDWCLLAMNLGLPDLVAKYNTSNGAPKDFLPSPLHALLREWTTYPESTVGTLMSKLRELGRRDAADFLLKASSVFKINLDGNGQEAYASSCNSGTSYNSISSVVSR
From the text: as §1

[3] = molecular target: 363 human kinases (including Aurora A/B/C) (Homo sapiens, UniProt O75676); details: MSK2/RPS6KA4; for remaining activity at 0.1 µM: 100 nM; for remaining activity at 0.1 µM / remaining activity at 0.5 µM: read-out: % Enzyme Activity (relative to DMSO controls)
Sequence of 363 human kinases (including Aurora A/B/C) (Homo sapiens, UniProt O75676) (O75676 whole entry): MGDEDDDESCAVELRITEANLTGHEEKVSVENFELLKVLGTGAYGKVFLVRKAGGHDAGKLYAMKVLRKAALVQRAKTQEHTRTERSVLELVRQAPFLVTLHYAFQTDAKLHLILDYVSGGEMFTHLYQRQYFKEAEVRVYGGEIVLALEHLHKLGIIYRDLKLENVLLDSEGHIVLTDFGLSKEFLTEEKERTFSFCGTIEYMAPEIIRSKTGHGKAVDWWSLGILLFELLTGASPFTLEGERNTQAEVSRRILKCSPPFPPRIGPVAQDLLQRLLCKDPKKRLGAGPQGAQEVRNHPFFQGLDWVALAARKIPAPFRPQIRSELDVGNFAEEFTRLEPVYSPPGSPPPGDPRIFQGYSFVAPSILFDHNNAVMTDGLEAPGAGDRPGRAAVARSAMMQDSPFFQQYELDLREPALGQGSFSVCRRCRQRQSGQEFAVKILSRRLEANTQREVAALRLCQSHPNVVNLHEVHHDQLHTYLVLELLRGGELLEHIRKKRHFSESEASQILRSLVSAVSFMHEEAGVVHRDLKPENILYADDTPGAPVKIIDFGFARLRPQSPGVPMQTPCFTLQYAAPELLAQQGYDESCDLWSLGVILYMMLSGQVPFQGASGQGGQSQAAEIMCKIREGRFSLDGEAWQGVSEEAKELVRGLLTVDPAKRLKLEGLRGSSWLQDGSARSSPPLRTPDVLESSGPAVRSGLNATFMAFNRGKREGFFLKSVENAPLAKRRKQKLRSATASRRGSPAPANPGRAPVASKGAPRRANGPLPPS
From the text: as §1

[4] = molecular target: 363 human kinases (including Aurora A/B/C) (Homo sapiens, UniProt O43293); details: ZIPK/DAPK3; for remaining activity at 0.1 µM: 100 nM; for remaining activity at 0.1 µM / remaining activity at 0.5 µM: read-out: % Enzyme Activity (relative to DMSO controls)
Sequence of 363 human kinases (including Aurora A/B/C) (Homo sapiens, UniProt O43293) (O43293 whole entry): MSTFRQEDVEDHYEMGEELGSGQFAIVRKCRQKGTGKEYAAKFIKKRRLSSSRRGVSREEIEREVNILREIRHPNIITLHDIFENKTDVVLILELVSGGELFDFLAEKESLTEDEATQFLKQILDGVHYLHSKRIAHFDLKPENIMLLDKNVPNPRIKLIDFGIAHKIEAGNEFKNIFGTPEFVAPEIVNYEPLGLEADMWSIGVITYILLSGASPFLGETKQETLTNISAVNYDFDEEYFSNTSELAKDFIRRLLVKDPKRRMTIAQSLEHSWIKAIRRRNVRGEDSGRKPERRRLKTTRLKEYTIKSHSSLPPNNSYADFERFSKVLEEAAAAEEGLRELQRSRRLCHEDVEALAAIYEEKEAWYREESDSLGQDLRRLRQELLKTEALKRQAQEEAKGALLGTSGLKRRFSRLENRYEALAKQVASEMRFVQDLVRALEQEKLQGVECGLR
From the text: as §1

[5] = molecular target: 363 human kinases (including Aurora A/B/C) (Homo sapiens, UniProt P57059); details: SIK1; for remaining activity at 0.1 µM: 100 nM; for remaining activity at 0.1 µM / remaining activity at 0.5 µM: read-out: % Enzyme Activity (relative to DMSO controls)
Sequence of 363 human kinases (including Aurora A/B/C) (Homo sapiens, UniProt P57059) (P57059 whole entry): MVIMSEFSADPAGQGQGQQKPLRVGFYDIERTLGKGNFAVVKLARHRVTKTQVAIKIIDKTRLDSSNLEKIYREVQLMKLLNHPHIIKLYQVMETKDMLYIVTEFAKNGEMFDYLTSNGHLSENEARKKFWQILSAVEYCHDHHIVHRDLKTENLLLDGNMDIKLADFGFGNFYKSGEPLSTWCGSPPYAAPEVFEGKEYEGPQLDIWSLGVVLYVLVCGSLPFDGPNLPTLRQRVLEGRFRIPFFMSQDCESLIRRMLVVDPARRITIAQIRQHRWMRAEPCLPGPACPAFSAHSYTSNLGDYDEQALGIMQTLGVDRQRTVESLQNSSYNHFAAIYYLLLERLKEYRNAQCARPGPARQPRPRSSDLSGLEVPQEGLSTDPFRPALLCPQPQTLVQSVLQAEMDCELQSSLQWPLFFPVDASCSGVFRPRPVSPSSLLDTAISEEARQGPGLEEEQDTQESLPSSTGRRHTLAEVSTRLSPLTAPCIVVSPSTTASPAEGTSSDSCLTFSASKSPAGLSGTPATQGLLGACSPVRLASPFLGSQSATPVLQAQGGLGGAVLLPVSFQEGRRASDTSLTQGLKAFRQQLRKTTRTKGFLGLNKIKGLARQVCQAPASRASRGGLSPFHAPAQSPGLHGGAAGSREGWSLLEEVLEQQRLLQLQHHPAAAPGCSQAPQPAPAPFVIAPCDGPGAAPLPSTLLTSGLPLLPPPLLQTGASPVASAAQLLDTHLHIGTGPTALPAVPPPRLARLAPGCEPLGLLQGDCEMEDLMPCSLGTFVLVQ
From the text: as §1

[6] = molecular target: T1, 363 human kinases (including Aurora A/B/C) (Homo sapiens, UniProt Q13976); details: PKG1a; for remaining activity at 0.1 µM: 100 nM
T1 sequence (Q13976 1-671): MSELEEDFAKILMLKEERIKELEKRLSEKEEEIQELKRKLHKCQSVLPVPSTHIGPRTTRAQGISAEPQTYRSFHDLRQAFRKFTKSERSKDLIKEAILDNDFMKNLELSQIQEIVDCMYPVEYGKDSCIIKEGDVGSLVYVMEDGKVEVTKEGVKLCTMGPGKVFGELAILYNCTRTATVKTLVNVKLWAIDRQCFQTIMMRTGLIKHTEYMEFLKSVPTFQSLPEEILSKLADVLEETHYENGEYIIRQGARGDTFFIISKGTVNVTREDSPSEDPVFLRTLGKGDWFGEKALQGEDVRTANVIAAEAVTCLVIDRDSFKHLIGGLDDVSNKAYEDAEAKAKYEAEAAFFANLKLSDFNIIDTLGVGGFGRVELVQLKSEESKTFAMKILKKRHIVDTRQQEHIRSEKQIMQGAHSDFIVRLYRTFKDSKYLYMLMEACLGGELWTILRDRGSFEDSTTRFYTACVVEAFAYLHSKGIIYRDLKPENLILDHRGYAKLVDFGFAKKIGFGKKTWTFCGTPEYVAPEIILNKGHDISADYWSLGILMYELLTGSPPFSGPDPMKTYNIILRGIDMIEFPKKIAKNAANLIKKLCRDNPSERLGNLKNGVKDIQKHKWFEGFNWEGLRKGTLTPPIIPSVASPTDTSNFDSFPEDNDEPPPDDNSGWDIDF
From the text: as §1

[7] = molecular target: T2, 363 human kinases (including Aurora A/B/C) (Homo sapiens, UniProt P42679); details: CTK/MATK, [ATP] 100 µM; for remaining activity at 0.1 µM: 100 nM; for remaining activity at 0.1 µM / remaining activity at 0.5 µM: read-out: % Enzyme Activity (relative to DMSO controls)
T2 sequence (P42679 1-507): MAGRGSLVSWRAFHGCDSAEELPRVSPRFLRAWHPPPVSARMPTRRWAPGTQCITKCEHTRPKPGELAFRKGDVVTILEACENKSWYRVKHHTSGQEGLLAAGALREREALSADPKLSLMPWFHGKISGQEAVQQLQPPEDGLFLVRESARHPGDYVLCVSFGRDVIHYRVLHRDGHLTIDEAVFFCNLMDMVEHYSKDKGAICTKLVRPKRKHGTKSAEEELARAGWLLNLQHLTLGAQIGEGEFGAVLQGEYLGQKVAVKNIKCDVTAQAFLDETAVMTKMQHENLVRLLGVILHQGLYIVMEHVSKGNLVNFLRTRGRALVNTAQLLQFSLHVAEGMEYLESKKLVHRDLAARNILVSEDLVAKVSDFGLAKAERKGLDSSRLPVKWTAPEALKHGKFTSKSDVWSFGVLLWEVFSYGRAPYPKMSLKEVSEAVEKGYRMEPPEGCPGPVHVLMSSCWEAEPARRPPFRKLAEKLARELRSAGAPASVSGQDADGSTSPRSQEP
From the text: as §1

[8] = molecular target: T3, 363 human kinases (including Aurora A/B/C) (Homo sapiens, UniProt Q15835); details: GRK1; for remaining activity at 0.1 µM: 100 nM; for remaining activity at 0.1 µM / remaining activity at 0.5 µM: read-out: % Enzyme Activity (relative to DMSO controls)
T3 sequence (Q15835 1-563): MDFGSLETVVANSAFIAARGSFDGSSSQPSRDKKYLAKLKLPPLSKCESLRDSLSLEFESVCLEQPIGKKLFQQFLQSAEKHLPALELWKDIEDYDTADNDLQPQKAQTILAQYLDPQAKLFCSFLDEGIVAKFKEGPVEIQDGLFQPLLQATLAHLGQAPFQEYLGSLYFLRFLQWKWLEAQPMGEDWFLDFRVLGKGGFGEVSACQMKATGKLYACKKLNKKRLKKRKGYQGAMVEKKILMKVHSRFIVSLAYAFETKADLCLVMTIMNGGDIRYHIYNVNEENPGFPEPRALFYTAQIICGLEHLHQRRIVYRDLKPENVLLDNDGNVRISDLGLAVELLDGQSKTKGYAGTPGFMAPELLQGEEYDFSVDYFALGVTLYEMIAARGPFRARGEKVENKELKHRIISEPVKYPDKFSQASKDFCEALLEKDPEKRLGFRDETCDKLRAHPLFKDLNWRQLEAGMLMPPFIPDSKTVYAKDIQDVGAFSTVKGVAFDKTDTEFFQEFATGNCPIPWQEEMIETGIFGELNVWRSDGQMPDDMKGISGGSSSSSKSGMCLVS
From the text: as §1

[9] = molecular target: 363 human kinases (including Aurora A/B/C) (Homo sapiens, UniProt Q86Y07); details: VRK2; for remaining activity at 0.1 µM: 100 nM; for remaining activity at 0.1 µM / remaining activity at 0.5 µM: read-out: % Enzyme Activity (relative to DMSO controls)
Sequence of 363 human kinases (including Aurora A/B/C) (Homo sapiens, UniProt Q86Y07) (Q86Y07 whole entry): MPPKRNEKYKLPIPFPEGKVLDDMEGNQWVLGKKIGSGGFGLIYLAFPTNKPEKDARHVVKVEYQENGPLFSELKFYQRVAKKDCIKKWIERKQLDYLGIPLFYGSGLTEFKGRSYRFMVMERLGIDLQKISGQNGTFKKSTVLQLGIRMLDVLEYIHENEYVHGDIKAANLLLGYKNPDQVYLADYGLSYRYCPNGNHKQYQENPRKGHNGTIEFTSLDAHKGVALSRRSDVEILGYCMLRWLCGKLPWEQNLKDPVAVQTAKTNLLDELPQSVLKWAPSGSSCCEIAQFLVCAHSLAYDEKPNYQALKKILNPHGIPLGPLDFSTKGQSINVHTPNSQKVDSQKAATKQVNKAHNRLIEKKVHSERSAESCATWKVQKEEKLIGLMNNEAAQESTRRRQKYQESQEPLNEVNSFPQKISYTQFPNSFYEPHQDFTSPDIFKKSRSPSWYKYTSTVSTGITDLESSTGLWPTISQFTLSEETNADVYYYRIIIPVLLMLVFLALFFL
From the text: as §1

[10] = read-out: % Enzyme Activity (relative to DMSO controls)
[11] = 500 nM, read-out: % Enzyme Activity (relative to DMSO controls)

Sequence of 363 human kinases (including Aurora A/B/C) (Homo sapiens, UniProt Q16620) (Q16620 32-822): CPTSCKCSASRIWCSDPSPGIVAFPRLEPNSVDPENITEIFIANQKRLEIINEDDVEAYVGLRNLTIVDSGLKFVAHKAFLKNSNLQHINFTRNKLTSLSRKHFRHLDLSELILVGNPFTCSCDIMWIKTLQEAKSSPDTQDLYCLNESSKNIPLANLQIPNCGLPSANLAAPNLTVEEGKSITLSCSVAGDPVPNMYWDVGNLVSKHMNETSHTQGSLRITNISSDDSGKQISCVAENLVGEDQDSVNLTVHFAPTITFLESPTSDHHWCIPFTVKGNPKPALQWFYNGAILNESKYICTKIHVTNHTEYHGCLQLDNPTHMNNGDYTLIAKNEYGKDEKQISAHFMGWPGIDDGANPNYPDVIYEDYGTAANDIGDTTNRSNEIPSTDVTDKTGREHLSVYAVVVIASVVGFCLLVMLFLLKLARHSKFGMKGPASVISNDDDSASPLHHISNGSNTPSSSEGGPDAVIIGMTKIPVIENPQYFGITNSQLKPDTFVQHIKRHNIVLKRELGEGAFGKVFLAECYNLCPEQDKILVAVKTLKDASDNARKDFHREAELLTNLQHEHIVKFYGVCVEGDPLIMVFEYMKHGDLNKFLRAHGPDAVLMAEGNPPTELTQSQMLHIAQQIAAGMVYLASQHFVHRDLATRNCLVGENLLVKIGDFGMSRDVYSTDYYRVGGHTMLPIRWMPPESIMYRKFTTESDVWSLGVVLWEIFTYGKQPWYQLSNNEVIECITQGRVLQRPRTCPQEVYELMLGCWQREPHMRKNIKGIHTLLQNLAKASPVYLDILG

Q: How did the remaining activity at 0.1 µM [1, 10] turn out when `CCn1cc(-c2ccnc3[nH]c(-c4cccc(CN(C)C)c4)cc23)c(-c2ccc(NC(=O)N(C)C)cc2)n1` [GSK1070916] was run?
A: The remaining activity at 0.1 µM was 108%.

Q: And the remaining activity at 0.1 µM [2]?
A: Its remaining activity at 0.1 µM is 94.7%.

Q: What about the remaining activity at 0.1 µM [3] of the same molecule?
A: The remaining activity at 0.1 µM was 103%.

Q: What about the remaining activity at 0.1 µM [4] of the same molecule?
A: Its remaining activity at 0.1 µM is 91.4%.

Q: And the remaining activity at 0.1 µM [5]?
A: The remaining activity at 0.1 µM was 40.7%.

Q: And the remaining activity at 0.1 µM [6, 10]?
A: Its remaining activity at 0.1 µM is 126%.

Q: What about the remaining activity at 0.1 µM [7] of the same molecule?
A: The remaining activity at 0.1 µM was 82.4%.

Q: And the remaining activity at 0.1 µM [8]?
A: The remaining activity at 0.1 µM was 95.1%.

Q: What about the remaining activity at 0.1 µM [9] of the same molecule?
A: Its remaining activity at 0.1 µM is 106%.

Q: For `O=C(O)[C@]1(Cc2cccc(Nc3nccs3)n2)CC[C@@H](Oc2cccc(Cl)c2F)CC1` [MK-5108], which remaining activity at 0.1 µM [1, 10] is on record?
A: The remaining activity at 0.1 µM was 1.79%.

Q: What about the remaining activity at 0.1 µM [2] of the same molecule?
A: The remaining activity at 0.1 µM was 104%.

Q: What about the remaining activity at 0.5 µM ([2]; 500 nM) of the same molecule?
A: The remaining activity at 0.5 µM was 101%.

Q: What about the remaining activity at 0.1 µM [3] of the same molecule?
A: Its remaining activity at 0.1 µM is 103%.

Q: What about the remaining activity at 0.5 µM ([3]; 500 nM) of the same molecule?
A: The remaining activity at 0.5 µM was 98.8%.

Q: And the remaining activity at 0.1 µM [4]?
A: The remaining activity at 0.1 µM was 97.8%.

Q: What about the remaining activity at 0.5 µM ([4]; 500 nM) of the same molecule?
A: Its remaining activity at 0.5 µM is 92.6%.

Q: And the remaining activity at 0.1 µM [5]?
A: Its remaining activity at 0.1 µM is 103%.

Q: And the remaining activity at 0.5 µM ([5]; 500 nM)?
A: Its remaining activity at 0.5 µM is 54.4%.

Q: What about the remaining activity at 0.1 µM [6, 10] of the same molecule?
A: Its remaining activity at 0.1 µM is 122%.

Q: And the remaining activity at 0.1 µM [7]?
A: Its remaining activity at 0.1 µM is 103%.

Q: What about the remaining activity at 0.5 µM ([7]; 500 nM) of the same molecule?
A: Its remaining activity at 0.5 µM is 129%.

Q: And the remaining activity at 0.1 µM [8]?
A: Its remaining activity at 0.1 µM is 99%.

Q: And the remaining activity at 0.5 µM ([8]; 500 nM)?
A: The remaining activity at 0.5 µM was 106%.

Q: And the remaining activity at 0.1 µM [9]?
A: The remaining activity at 0.1 µM was 114%.

Q: And the remaining activity at 0.5 µM ([9]; 500 nM)?
A: Its remaining activity at 0.5 µM is 91.7%.

Q: For `O=C(c1cccc(Cl)c1F)N1CCN(Cc2cccc(Nc3nccs3)n2)CC1` [MK-8745], which “% Enzyme Activity (relative to DMSO controls)” value ([1]; 500 nM) is on record?
A: The value was 8.70%.

Q: What about the remaining activity at 0.5 µM [1, 11] of the same molecule?
A: Its remaining activity at 0.5 µM is 9.04%.

Q: And the “% Enzyme Activity (relative to DMSO controls)” value ([2]; 500 nM)?
A: Its value is 98.77%.

Q: And the remaining activity at 0.5 µM ([2]; 500 nM)?
A: The remaining activity at 0.5 µM was 101%.

Q: And the “% Enzyme Activity (relative to DMSO controls)” value ([3]; 500 nM)?
A: Its value is 96.01%.

Q: And the remaining activity at 0.5 µM ([3]; 500 nM)?
A: The remaining activity at 0.5 µM was 96.1%.

Q: And the “% Enzyme Activity (relative to DMSO controls)” value ([4]; 500 nM)?
A: The value was 93.58%.

Q: And the remaining activity at 0.5 µM ([4]; 500 nM)?
A: Its remaining activity at 0.5 µM is 95.5%.

Q: What about the “% Enzyme Activity (relative to DMSO controls)” value ([5]; 500 nM) of the same molecule?
A: The value was 93.78%.

Q: What about the remaining activity at 0.5 µM ([5]; 500 nM) of the same molecule?
A: Its remaining activity at 0.5 µM is 95.7%.

Q: And the “% Enzyme Activity (relative to DMSO controls)” value ([6]; 500 nM)?
A: The value was 94.34%.

Q: And the remaining activity at 0.5 µM [6, 11]?
A: Its remaining activity at 0.5 µM is 95.4%.

Q: What about the “% Enzyme Activity (relative to DMSO controls)” value ([7]; 500 nM) of the same molecule?
A: The value was 86.22%.

Q: And the remaining activity at 0.5 µM ([7]; 500 nM)?
A: The remaining activity at 0.5 µM was 86.8%.

Q: And the “% Enzyme Activity (relative to DMSO controls)” value ([8]; 500 nM)?
A: The value was 98.09%.

Q: What about the remaining activity at 0.5 µM ([8]; 500 nM) of the same molecule?
A: Its remaining activity at 0.5 µM is 101%.

Q: And the “% Enzyme Activity (relative to DMSO controls)” value ([9]; 500 nM)?
A: Its value is 103.85%.

Q: What about the remaining activity at 0.5 µM ([9]; 500 nM) of the same molecule?
A: Its remaining activity at 0.5 µM is 107%.
